Measured values taken from patent publication US4684664A, “Derivatives of β-(4-isocyano-1,2,3,4-diepoxycyclopentyl) acrylic acid” (Kureha Kagaku Kogyo Kabushiki Kaisha, priority 1984, dated 1987).
Values after ≈ are worked out from the molar mass of the structure shown.

What was measured:
Type in all cases: cell-based
[1] = tested on: Staphylococcus aureus Terajima; experiment: Antibacterial activity, agar-dilution MIC, organism No. 2; settings: Staphylococcus aureus; Organism No. 2, bouillon-agar; read-out: Minimum Inhibitory Concentration
Summary of the method: (§1)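 Agar dilution, bouillon-agar plates; MIC reported in μg/ml of medium.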

[2] = tested on: Candida albicans IAM 4905; experiment: Antifungal activity, agar-dilution MIC, organism No. 29; settings: Candida albicans, IAM4905; Organism No. 29, bouillon-agar; read-out: Minimum Inhibitory Concentration
Summary of the method: as §1

Enterobacter cloacae 963 = experiment: Antibacterial activity, agar-dilution MIC, organism No. 24; settings: Enterobacter cloacae, 963; Organism No. 24, bouillon-agar; read-out: Minimum Inhibitory Concentration
Summary of the method: as §1

[3] = tested on: Serratia marcescens IAM 1184; experiment: Antibacterial activity, agar-dilution MIC, organism No. 13; settings: Serratia marcescens, IAM1184; Organism No. 13, bouillon-agar; read-out: Minimum Inhibitory Concentration
Summary of the method: as §1

[4] = tested on: Salmonella enteritidis G 14; experiment: Antibacterial activity, agar-dilution MIC, organism No. 12; settings: Salmonella enterica, ENTERITIDIS; Organism No. 12, bouillon-agar; read-out: Minimum Inhibitory Concentration
Summary of the method: as §1

[5] = tested on: Aspergillus niger IFO 6342; experiment: Antifungal activity, agar-dilution MIC, organism No. 30; settings: Aspergillus niger, IFO6342; Organism No. 30, bouillon-agar; read-out: Minimum Inhibitory Concentration
Summary of the method: as §1

[6] = tested on: Staphylococcus aureus FDA 209PJc-1; experiment: Antibacterial activity, agar-dilution MIC, organism No. 1; settings: Staphylococcus aureus, FDA209PJC1; Organism No. 1, bouillon-agar; read-out: Minimum Inhibitory Concentration
Summary of the method: as §1

[7] = tested on: Staphylococcus aureus MS 353; experiment: Antibacterial activity, agar-dilution MIC, organism No. 3; settings: Staphylococcus aureus, MS353; Organism No. 3, bouillon-agar; read-out: Minimum Inhibitory Concentration
Summary of the method: as §1

[8] = tested on: Salmonella paratyphi-A 1015; experiment: Antibacterial activity, agar-dilution MIC, organism No. 10; settings: Salmonella enterica, PARATYPHI, read-out: Minimum Inhibitory Concentration
Summary of the method: as §1

[9] = tested on: Escherichia coli K12 C600 IAM 1264; experiment: Antibacterial activity, agar-dilution MIC, organism No. 6; settings: Escherichia coli, IAM1264; Organism No. 6, bouillon-agar; read-out: Minimum Inhibitory Concentration
Summary of the method: as §1

[10] = tested on: Pseudomonas aeruginosa PAO 1; experiment: Antibacterial activity, agar-dilution MIC, organism No. 17; settings: Pseudomonas aeruginosa, PAO1; Organism No. 17, bouillon-agar; read-out: Minimum Inhibitory Concentration
Summary of the method: as §1

[11] = tested on: Bacillus subtilis ATCC 6633; experiment: Antibacterial activity, agar-dilution MIC, organism No. 14; settings: Bacillus subtilis, ATCC6633; Organism No. 14, bouillon-agar; read-out: Minimum Inhibitory Concentration
Summary of the method: as §1

[12] = tested on: Enterobacter aerogenes ATCC 13048; experiment: Antibacterial activity, agar-dilution MIC, organism No. 23; settings: Klebsiella aerogenes, ATCC13048; Organism No. 23, bouillon-agar; read-out: Minimum Inhibitory Concentration
Summary of the method: as §1

[13] = tested on: Streptococcus pyogenes Cook; experiment: Antibacterial activity, agar-dilution MIC, organism No. 4; settings: Streptococcus pyogenes; Organism No. 4, bouillon-agar; read-out: Minimum Inhibitory Concentration
Summary of the method: as §1

[14] = tested on: Proteus morganii IFO 3848; experiment: Antibacterial activity, agar-dilution MIC, organism No. 18; settings: Morganella morganii, IFO3848; Organism No. 18, bouillon-agar; read-out: Minimum Inhibitory Concentration
Summary of the method: as §1

[15] = tested on: Pseudomonas aeruginosa NCTC 10490; experiment: Antibacterial activity, agar-dilution MIC, organism No. 16; settings: Pseudomonas aeruginosa, NCTC10490; Organism No. 16, bouillon-agar; read-out: Minimum Inhibitory Concentration
Summary of the method: as §1

[16] = tested on: Mycoplasma pneumoniae IID817; experiment: Antimycoplasmal activity, MIC by phenol red colour change, organism No. 28; settings: Mycoplasma, IID817; Organism No. 28, PPLO broth + 1% glucose, 37° C.; read-out: Minimum Inhibitory Concentration (MIC)
Protocol: Mycoplasma pneumoniae IID817 was used as the test microorganism in a culture medium prepared by adding 1% of glucose to "PPLO broth (manufactured by Difco Co.) liquid culture medium" at 37° C. with phenol red as an indicator, thereby culturing the test microorganism.

[17] = tested on: Salmonella typhimurium IID 971; experiment: Antibacterial activity, agar-dilution MIC, organism No. 8; settings: Salmonella enterica; Organism No. 8, bouillon-agar; read-out: Minimum Inhibitory Concentration
Summary of the method: as §1

[18] = tested on: Klebsiella pneumoniae PCI-602; experiment: Antibacterial activity, agar-dilution MIC, organism No. 7; settings: Klebsiella pneumoniae, PCI602; Organism No. 7, bouillon-agar; read-out: Minimum Inhibitory Concentration
Summary of the method: as §1

Proteus vulgaris HX-19 = experiment: Antibacterial activity, agar-dilution MIC, organism No. 21; settings: Proteus vulgaris, HX19; Organism No. 21, bouillon-agar; read-out: Minimum Inhibitory Concentration
Summary of the method: as §1

[19] = tested on: Proteus mirabilis IFO 3849; experiment: Antibacterial activity, agar-dilution MIC, organism No. 19; settings: Proteus mirabilis, IFO3849; Organism No. 19, bouillon-agar; read-out: Minimum Inhibitory Concentration
Summary of the method: as §1

[20] = tested on: Pseudomonas aeruginosa IFO 3445; experiment: Antibacterial activity, agar-dilution MIC, organism No. 15; settings: Pseudomonas aeruginosa, IFO3445; Organism No. 15, bouillon-agar; read-out: Minimum Inhibitory Concentration
Summary of the method: as §1

[21] = tested on: Proteus rettgeri IFO 3850; experiment: Antibacterial activity, agar-dilution MIC, organism No. 22; settings: Providencia rettgeri, IFO3850; Organism No. 22, bouillon-agar; read-out: Minimum Inhibitory Concentration
Summary of the method: as §1

[22] = tested on: Escherichia coli NIHJ-JC-2; experiment: Antibacterial activity, agar-dilution MIC, organism No. 5; settings: Escherichia coli, NIHJJC2; Organism No. 5, bouillon-agar; read-out: Minimum Inhibitory Concentration
Summary of the method: as §1

[23] = tested on: Salmonella shottmuelleri 8006; experiment: Antibacterial activity, agar-dilution MIC, organism No. 11; settings: Salmonella, 8006; Organism No. 11, bouillon-agar; read-out: Minimum Inhibitory Concentration
Summary of the method: as §1

[24] = tested on: Streptococcus pyogenes IFO 3340; experiment: Antibacterial activity, agar-dilution MIC, organism No. 26; settings: Streptococcus pyogenes, IFO3340; Organism No. 26, bouillon-agar; read-out: Minimum Inhibitory Concentration
Summary of the method: as §1

[25] = tested on: Micrococcus luteus ATCC 9341; experiment: Antibacterial activity, agar-dilution MIC, organism No. 25; settings: Micrococcus luteus, ATCC9341; Organism No. 25, bouillon-agar; read-out: Minimum Inhibitory Concentration
Summary of the method: as §1

[26] = tested on: Streptococcus faecium IFO 3826; experiment: Antibacterial activity, agar-dilution MIC, organism No. 27; settings: Enterococcus faecium, IFO3826; Organism No. 27, bouillon-agar; read-out: Minimum Inhibitory Concentration
Summary of the method: as §1

Proteus vulgaris OX-19 = experiment: Antibacterial activity, agar-dilution MIC, organism No. 20; settings: Proteus vulgaris, OX19; Organism No. 20, bouillon-agar; read-out: Minimum Inhibitory Concentration
Summary of the method: as §1

Salmonella typhi 901 = experiment: Antibacterial activity, agar-dilution MIC, organism No. 9; settings: Salmonella enterica, TYPHI, read-out: Minimum Inhibitory Concentration
Summary of the method: as §1

SMILES | MIC [1] | MIC [2] | MIC (Enterobacter cloacae 963) | MIC [3] | MIC [4] | MIC [5] | MIC [6] | MIC [7] | MIC [8] | MIC [9] | MIC [10] | MIC [11] | MIC [12] | MIC [13] | MIC [14] | MIC [15] | MIC [16] | MIC [17] | MIC [18] | MIC (Proteus vulgaris HX-19) | other results
[C-]#[N+]C12CC3(/C=C/C(=O)Nc4ccc(C(=O)O)cc4)OC3C1O2 (stereo not drawn) [compound 51] | 12.5 µg/mL (≈ 40 µM) | 100 µg/mL (≈ 320 µM) | > 200 µg/mL | > 200 µg/mL | 50 µg/mL (≈ 160 µM) | 100 µg/mL (≈ 320 µM) | 12.5 µg/mL (≈ 40 µM) | 6.25 µg/mL (≈ 20 µM) | 50 µg/mL (≈ 160 µM) | 200 µg/mL (≈ 640 µM) | > 200 µg/mL | 50 µg/mL (≈ 160 µM) | > 200 µg/mL | 12.5 µg/mL (≈ 40 µM) | 1.56 µg/mL (≈ 5 µM) | > 200 µg/mL | < 0.2 µg/mL | 100 µg/mL (≈ 320 µM) | 100 µg/mL (≈ 320 µM) | 12.5 µg/mL (≈ 40 µM) | MIC [19]: > 200 µg/mL; MIC [20]: > 200 µg/mL; MIC [21]: > 200 µg/mL; MIC [22]: 200 µg/mL (≈ 640 µM); MIC [23]: 50 µg/mL (≈ 160 µM); MIC [24]: 25 µg/mL (≈ 80.1 µM); MIC [25]: 1.56 µg/mL (≈ 5 µM); MIC [26]: 12.5 µg/mL (≈ 40 µM); MIC (Proteus vulgaris OX-19): 12.5 µg/mL (≈ 40 µM); MIC (Salmonella typhi 901): 50 µg/mL (≈ 160 µM)
[C-]#[N+]C12CC3(/C=C/C(=O)Nc4cccc(C(=O)O)c4)OC3C1O2 (stereo not drawn) [compound 52] | 50 µg/mL (≈ 160 µM) | 100 µg/mL (≈ 320 µM) | > 200 µg/mL | > 200 µg/mL | 50 µg/mL (≈ 160 µM) | 100 µg/mL (≈ 320 µM) | 12 µg/mL (≈ 38.4 µM) | 25 µg/mL (≈ 80.1 µM) | 50 µg/mL (≈ 160 µM) | 200 µg/mL (≈ 640 µM) | > 200 µg/mL | 200 µg/mL (≈ 640 µM) | > 200 µg/mL | 50 µg/mL (≈ 160 µM) | 12.5 µg/mL (≈ 40 µM) | > 200 µg/mL | < 0.2 µg/mL | 100 µg/mL (≈ 320 µM) | 200 µg/mL (≈ 640 µM) | 50 µg/mL (≈ 160 µM) | MIC [19]: > 200 µg/mL; MIC [20]: > 200 µg/mL; MIC [21]: > 200 µg/mL; MIC [22]: 200 µg/mL (≈ 640 µM); MIC [23]: 50 µg/mL (≈ 160 µM); MIC [24]: 100 µg/mL (≈ 320 µM); MIC [25]: 25 µg/mL (≈ 80.1 µM); MIC [26]: 50 µg/mL (≈ 160 µM); MIC (Proteus vulgaris OX-19): 50 µg/mL (≈ 160 µM); MIC (Salmonella typhi 901): 50 µg/mL (≈ 160 µM)
[C-]#[N+]C12CC3(/C=C/C(=O)Nc4cccc(OC)c4)OC3C1O2 (stereo not drawn) [compound 54] | 1.56 µg/mL (≈ 5.23 µM) | 0.79 µg/mL (≈ 2.65 µM) | > 200 µg/mL | 100 µg/mL (≈ 335 µM) | 3.13 µg/mL (≈ 10.5 µM) | 1.56 µg/mL (≈ 5.23 µM) | 0.39 µg/mL (≈ 1.31 µM) | 0.2 µg/mL (≈ 0.67 µM) | 0.78 µg/mL (≈ 2.61 µM) | 50 µg/mL (≈ 168 µM) | > 200 µg/mL | 3.13 µg/mL (≈ 10.5 µM) | > 200 µg/mL | 25 µg/mL (≈ 83.8 µM) | 0.39 µg/mL (≈ 1.31 µM) | > 200 µg/mL | < 0.2 µg/mL | 6.25 µg/mL (≈ 21 µM) | 0.2 µg/mL (≈ 0.67 µM) | 0.3 µg/mL (≈ 1.01 µM) | MIC [19]: > 200 µg/mL; MIC [20]: > 200 µg/mL; MIC [21]: 6.25 µg/mL (≈ 21 µM); MIC [22]: 50 µg/mL (≈ 168 µM); MIC [23]: 0.39 µg/mL (≈ 1.31 µM); MIC [24]: 0.39 µg/mL (≈ 1.31 µM); MIC [25]: 0.05 µg/mL (≈ 0.168 µM); MIC [26]: 25 µg/mL (≈ 83.8 µM); MIC (Proteus vulgaris OX-19): 0.39 µg/mL (≈ 1.31 µM); MIC (Salmonella typhi 901): 3.13 µg/mL (≈ 10.5 µM)
[C-]#[N+]C12CC3(/C=C/C(=O)Nc4ccccc4OC)OC3C1O2 (stereo not drawn) [compound 55] | 3.13 µg/mL (≈ 10.5 µM) | 3.13 µg/mL (≈ 10.5 µM) | > 200 µg/mL | > 200 µg/mL | 12.5 µg/mL (≈ 41.9 µM) | 12.5 µg/mL (≈ 41.9 µM) | 1.56 µg/mL (≈ 5.23 µM) | 0.78 µg/mL (≈ 2.61 µM) | 12.5 µg/mL (≈ 41.9 µM) | 200 µg/mL (≈ 670 µM) | > 200 µg/mL | 25 µg/mL (≈ 83.8 µM) | > 200 µg/mL | 200 µg/mL (≈ 670 µM) | 6.25 µg/mL (≈ 21 µM) | > 200 µg/mL | < 0.2 µg/mL | 50 µg/mL (≈ 168 µM) | 0.39 µg/mL (≈ 1.31 µM) | < 0.05 µg/mL | MIC [19]: > 200 µg/mL; MIC [20]: > 200 µg/mL; MIC [21]: > 200 µg/mL; MIC [22]: 200 µg/mL (≈ 670 µM); MIC [23]: 3.13 µg/mL (≈ 10.5 µM); MIC [24]: 6.25 µg/mL (≈ 21 µM); MIC [25]: < 0.05 µg/mL; MIC [26]: 200 µg/mL (≈ 670 µM); MIC (Proteus vulgaris OX-19): 6.25 µg/mL (≈ 21 µM); MIC (Salmonella typhi 901): 25 µg/mL (≈ 83.8 µM)
